Test system: Male C57B/6 mice
Assay: Pentylenetetrazol (PTZ)-induced convulsions in mice
Type: in vivo
Conditions: for Latency to first convulsion: convulsion level 3 or higher; for Number of events Myoclonic: level 3+level 4 events; for Number of events Myoclonic / Number of events Clonic / Number of events Tonic-Clonic: scored 10 minutes; for Number of events Clonic: level 5 events; for Number of events Tonic-Clonic: level 6+level 7 events
Description: Male C57B/6 mice (20-25 g) were administered intraperitoneal Compound A (1 mg/kg), Compound B (1 or 10 mg/kg), Compound C (1 mg/kg), diazepam (0.5 mg/kg), gabapentin (50 mg/kg), or vehicle (ddH 2O) prior to treatment with pentylenetetrazol (PTZ, 50 mg/kg IP). Compounds A, B, C, and gabapentin were administered 60 minutes before, and diazepam or vehicle was administered 30 minutes before PTZ. Immediately following PTZ injection, mice were individually placed in an observation cage and the latency to onset of first convulsion (level 3 or higher; Table 2) was recorded, as well as the number of each type of convulsion (see Table 2 for scoring method modified from the scale used by Rizwan et al, Pol. J. Pharmacol., 55(6):965-71 (2003)).
Level I and 2 behaviors were not considered convulsions, but were scored to keep track of any possible sedative or abnormal effect following drug treatment.
Data are expressed as the number of myoclonic convulsions (level 3+level 4 events), number of clonic convulsions (level 5 events), and number of tonic-clonic events (level 6+level 7 events; Table 3-1), as well as the latency to first convulsion onset (in seconds). The sum of each convulsion type/mouse (myclonic, clonic, or clonic-tonic) was entered into GraphPad Prism and analyzed by One-Way ANOVA with post-hoc Dunnett's Multiple Comparisons Tests relative to vehicle+PTZ. Overall significance was established when P<0.0125 (corrected for number of groups). Post-hoc comparisons were considered significant when P<0.05.

[1] = 1 mg/kg intraperitoneal, 60 minutes before PTZ 50 mg/kg IP
[2] = 10 mg/kg intraperitoneal, 60 minutes before PTZ 50 mg/kg IP
[3] = 0.5 mg/kg intraperitoneal, 30 minutes before PTZ 50 mg/kg IP
[4] = 50 mg/kg intraperitoneal, 60 minutes before PTZ 50 mg/kg IP

Row | SMILES | Latency to first convulsion [1] [s] | Number of events Myoclonic [1] | Number of events Clonic [1] | Number of events Tonic-Clonic [1] | other results
1 | NC(C(=O)N1CCCC1)C(O)c1ccncc1 (racemic) [Compound A] | 342.8 ± 76.7 | 1.40 ± 0.4 | 0.2 ± 0.1 | 0.5 ± 0.2 | 
2 | N[C@@H](C(=O)N1CCCC1)[C@@H](O)c1ccncc1 [Compound B] | 208.8 ± 84.29 | 0.83 ± 0.31 | 0.83 ± 0.17 | 0.0 ± 0.0 | Latency to first convulsion [2]: 308.9 ± 92.55 s; Number of events Myoclonic [2]: 0.17 ± 0.17; Number of events Clonic [2]: 0.50 ± 0.22; Number of events Tonic-Clonic [2]: 0.33 ± 0.21
3 | N[C@@H](C(=O)N1CCCC1)[C@@H](O)c1ccc(F)cc1 [Compound C] | 367.1 ± 78.30 | 2.00 ± 1.02 | 0.10 ± 0.10 | 0.0 ± 0.0 | 
4 | CN1C(=O)CN=C(c2ccccc2)c2cc(Cl)ccc21 [Diazepam, reference compound] |  |  |  |  | Latency to first convulsion [3]: 546.4 ± 53.60 s; Number of events Myoclonic [3]: 0.0 ± 0.0; Number of events Clonic [3]: 0.0 ± 0.0; Number of events Tonic-Clonic [3]: 0.60 ± 0.60
5 | NCC1(CC(=O)O)CCCCC1 [Gabapentin, reference compound] |  |  |  |  | Latency to first convulsion [4]: 194.8 ± 30.41 s; Number of events Myoclonic [4]: 1.20 ± 0.55; Number of events Clonic [4]: 0.90 ± 0.18; Number of events Tonic-Clonic [4]: 0.20 ± 0.13

From patent US8404721B2, “Compositions and methods for treating seizure disorders” (Allergan, Inc., priority 2009, dated 2013)
